Experimental data reported in patent US20090176950A1, “METAL HYDRIDE COMPLEX, METHOD OF HYD[…]-OPENING POLY[…] OF CYCLOOLEFIN, AND PROCESS FOR PRODUCING PRODUCT OF HYD[…] RING-OPENING POLY[…] OF CYCLOOLEFIN” (JSR CORPORATION, priority 2005, published 2009).

Columns and labels:
[1] = solubility of the metal hydride complex to toluene; assay type: physicochemical
[2] = autoclave hydrogenation of DNM/DCP polymer (Example 9 procedure)
Description: (§1) ^1H-NMR was measured by using AVANCE500 manufactured by BRUKER as a nuclear magnetic resonance spectrometer (NMR) with chloroform-d as a measuring solvent. The composition of a monomer was calculated from the integral value of the vinylene group at 5.1 to 5.8 ppm, the methoxy group at 3.7 ppm and the aliphatic proton at 0.6 to 2.8 ppm, and then the hydrogenation rate was calculated.
Into a reaction vessel substituted with nitrogen were charged 75 parts by weight of 8-methoxycarbonyl-8-methyltetracyclo[4.4.0.1^2,5.1^7,10]-3-dodecene (DNM) and 25 parts by weight of dicyclopentadiene (DCP) as monomers, 6 parts by weight of 1-butene as a molecular weight adjusting agent and 170 parts by weight of toluene, and the resultant mixture was heated to 100° C. To this mixture were added 0.005 parts by weight of triethylaluminum, 0.005 parts by weight of methanol-modified WCl6 (anhydrous methanol:PhPOCl2:WCl6=103:630:427 (weight ratio)), and the reaction was carried out at 100° C. for one hour to obtain a polymer. The conversion was 100%.
Next, into a pressure-proof autoclave with a design temperature of 185° C. and a capacity of 1.25 m^3 were charged a solution of the polymer obtained above equivalent to 350 kg of the solid component and as a hydrogenation catalyst 0.0335 parts by weight of RuH(CO)[P(C6H5)]2(OCO-p-Ph-n-C5H13) of which saturation solubility to toluene at 25° C. is 5% by weight based on 100 parts by weight equivalent to the polymer solid component conversion, and the autoclave was heated to 100° C. Then, hydrogen gas was introduced to the autoclave to increase the pressure to 10 MPa. The maximum attained temperature during the hydrogenation reaction was 179° C. The theoretical value of generated heat was calculated from DNM=129.3 kcal/kg and DCP=452.3 kcal/kg. Thereafter, the reaction was carried out at 165° C. for 3 hours while maintaining the pressure at 10 MPa to obtain a hydrogenated product. […]

[3] = hydrogenation of ring-opening polymer with the complex as hydrogenation catalyst (Example 4 procedure); conditions: 0.06 parts complex per 1000 parts polymer solution, hydrogen 100 kg/cm^2, 165° C., 3 hours, 1H-NMR
Description: Into a reaction vessel substituted with nitrogen were charged 250 parts of 8-methyl-8-methoxycarbonyltetracyclo[4.4.0.1^2,5.1^7,10]-3-dodecene, 18 parts of 1-hexene (molecular weight adjusting agent) and 750 parts of toluene and the resulting solution was heated to 80° C. Thereafter, to the solution in the reaction vessel were added 0.62 parts of a toluene solution of triethylaluminum (1.5 mol/L) as a polymerization catalyst and 3.7 parts of a toluene solution (concentration: 0.05 mol/L) of tungsten hexachloride modified with t-butanol and methanol (t-butanol:methanol:tungsten=0.35 mol:0.3 mol:1 mol). The ring-opening copolymerization reaction was carried out by heating and stirring this system at 80° C. for 3 hours to obtain a ring-opening metathesis polymer solution of 8-methyl-8-methoxycarbonyltetracyclo[4.4.0.1^2,5.1^7,10]-3-dodecene. The polymerization conversion rate in this polymerization reaction was 97%.
Into an autoclave was charged 1000 parts of the ring-opening polymer solution obtained above and to this solution was added as a hydrogenation catalyst a toluene solution of 0.5% by weight of the ruthenium hydride complex obtained in Example 1 in an amount (12 parts) so that the amount of added complex was 0.06 parts. The hydrogenation reaction was carried out by heating and stirring for 3 hours under the conditions of a hydrogen gas pressure of 100 kg/cm^2 and a reaction temperature of 165° C. The resulting reaction solution (hydrogenated polymer solution) was cooled and then the hydrogen gas was released. This reaction solution was poured into a large amount of methanol to separate and collect a coagulated substances which was dried to obtain a hydrogenated polymer.

[4] = hydrogenation of ring-opening copolymer with the complex as catalyst (Example 7); conditions: 0.06 parts complex, hydrogen 100 kg/cm^2, 165° C., 3 hours
Text: A ring-opening polymer solution was obtained by carrying out the same polymerization operations as those in Example 4 except that 187.5 parts of 8-methyl-8-methoxycarbonyltetracyclo[4.4.0.1^2,5.1^7,10]-3-dodecene and 62.5 parts of tricyclo[4.3.0.1^2,5]deca-3,8-diene were used in place of 250 parts of 8-methyl-8-methoxycarbonyltetracyclo[4.4.0.1^2,5.1^7,10]-3-dodecene. The polymerization conversion rate of this polymerization reaction was 98%.
(§2) Into an autoclave was charged 1000 parts of the ring-opening copolymer solution thus obtained and to the ring-opening copolymer solution was added a toluene solution of 1.0% by weight of the ruthenium hydride complex obtained in Example 2 in an amount (6 parts) so that the amount of added complex was 0.06 parts. The hydrogenation reaction was carried out by heating and stirring for 3 hours under the conditions including a hydrogen gas pressure of 100 kg/cm^2 and a reaction temperature of 165° C. The resulting reaction solution (hydrogenated polymer solution) was cooled and then the hydrogen gas was released. […] This polymer was analyzed by ^1H-NMR and the hydrogenation rate was determined by the ratio of the integral value of the saturated hydrocarbons at 0.6 to 2.5 ppm to the integral value of the unsaturated hydrocarbons at 5.0 to 5.6 ppm.

[5] = hydrogenation of ring-opening copolymer with the complex as catalyst (Example 8); conditions: 0.06 parts complex, hydrogen 100 kg/cm^2, 165° C., 3 hours
Text: A ring-opening copolymer solution was obtained by carrying out the same polymerization operations as those in Example 4 except that 190 parts of 8-methyl-8-methoxycarbonyltetracyclo[4.4.0.1^2,5.1^7,10]-3-dodecene and 60 parts of spiro[fluorene-9,8′-tricyclo[4.3.0.1^2,5]dec-3-ene were used in place of 250 parts of 8-methyl-8-methoxycarbonyltetracyclo[4.4.0.1^2,5.1^7,10]-3-dodecene. The polymerization conversion rate in this polymerization reaction was 96%.
as §2, with “the ring-opening polymer solution was” for “the ring-opening copolymer solution was”, “the conditions of a hydrogen” for “the conditions including a hydrogen”

[6] = autoclave hydrogenation of DNM/DCP/NB polymer (Example 10 procedure); conditions: gelation inhibitor
Description: as §1
A hydrogenated product was obtained in the same way as Example 1 except that in Example 9, there were charged 65 parts by weight of 8-methoxycarbonyl-8-methyltetracyclo[4.4.0.1^2,5.1^7,10]-3-dodecene (DNM), 25 parts by weight of dicyclopentadiene (DCP) and 10 parts by weight of norbornene (NB) as monomers and 190 parts by weight of toluene to synthesize a polymer, and the charged amount equivalent to the solid component of the polymer was changed to 330 kg in the hydrogenation reaction. […] The maximum attained temperature during the hydrogenation reaction was 179° C. The theoretical value of generated heat was calculated from DNM=129.3 kcal/kg, DCP=452.3 kcal/kg and NB=319.3 kcal/kg.

[7] = hydrogen introduced at 100° C., 10 MPa, 165° C. for 3 hours

Compound	saturation solubility to toluene at 25° C. [1]	olefinic unsaturated bonds in the main chain hydrogenated (hydrogenation rate) [2, 7]	solubility to toluene at 20° C. [1]	hydrogenation rate of the hydrogenated polymer [3]	hydrogenation rate of the main chain of the copolymer [4]	hydrogenation rate of the unsaturated double bonds derived from the side chain of tricyclo[4.3.0.1^2,5]deca-3,8-diene [4]	hydrogenation rate of the main chain of the copolymer [5]	saturation solubility to toluene ([1]; temperature not given)	olefinic unsaturated bonds in the main chain hydrogenated (hydrogenation rate) ([2]; hydrogen introduction temperature 150° C., 600 parts toluene, gelation inhibitor)	olefinic unsaturated bonds in the main chain hydrogenated (hydrogenation rate) ([6]; hydrogen introduction temperature 100° C.)	olefinic unsaturated bonds in the main chain hydrogenated (hydrogenation rate) ([6]; hydrogen introduction temperature 150° C., 700 parts toluene)
RuH(CO)[P(C6H5)]2(OCO-p-Ph-n-C5H13)	5 % by weight	≥ 99.9%									
RuH(OCOPh-C5H11)(CO)(PPh3)2 [Example 2]			1.0 % by weight	99.95%	99.97%	≥ 99.99%	99.93%				
RuH(OCOPh)(CO)(PPh3)2 [Example 1]			0.5 % by weight	99.99%							
RuH(OCOPh-C8H17)(CO)(PPh3)2 [Example 3]			5.0 % by weight	99.90%							
[C-]#[O+].[Cl][RuH].c1ccc(P(c2ccccc2)c2ccccc2)cc1.c1ccc(P(c2ccccc2)c2ccccc2)cc1.c1ccc(P(c2ccccc2)c2ccccc2)cc1 [RuHCl(CO)(PPh3)3, reference compound]	0.05 % by weight	≥ 99.9%	0.03 % by weight	99.75%			99.30%	0.05 % by weight	≥ 99.9%	≥ 99.9%	≥ 99.9%
